# Experiments:
# Test in all cases: -log10 GI50 (growth inhibition 50%) (-log10(M)); higher = more potent growth inhibition
# MCF10F = system: MCF10F
# Outline: (§1)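 The reported figure is the negative logarithm of GI50, defined as the molar concentration that produces the set level of growth inhibition. The logarithm is base 10. It comes from a Gompertz curve fitted by nonlinear least squares to 72-hour luminescence data from breast cancer cell lines given nine doses in 1:5 serial dilution, in triplicate, with a time-zero plate as reference. A < qualifier marks values equal to the top dose.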
# HCC1395 = system: HCC1395
# Outline: as §1
# HCC1187 = system: HCC1187
# Outline: as §1
# CAMA1 = system: CAMA1
# Outline: as §1
# SUM185PE = system: SUM185PE
# Outline: as §1
# HS578T = system: HS578T
# Outline: as §1
# HCC1569 = system: HCC1569
# Outline: as §1
# BT20 = system: BT20
# Outline: as §1
# MDAMB134VI = system: MDAMB134VI
# Outline: as §1
# HCC202 = system: HCC202
# Outline: as §1
# HBL100 = system: HBL100
# Outline: as §1
smiles,measurement,setting,value
CCNCCCCNCCCCNCCCCNCCCCNC/C=C/CNCCCCNCCCCNCCCCNCCCCNCC,-log10 GI50,MCF10F,5.96
same,-log10 GI50,HCC1395,6.3
same,-log10 GI50,HCC1187,6.15
same,-log10 GI50,CAMA1,6.43
same,-log10 GI50,SUM185PE,6.68
same,-log10 GI50,HS578T,4.93
same,-log10 GI50,HCC1569,4.74
same,-log10 GI50,BT20,6.66
same,-log10 GI50,MDAMB134VI,6.38
same,-log10 GI50,HCC202,6.28
CNC(=O)c1c(F)cccc1Nc1nc(Nc2cc3c(cc2OC)CCN3C(=O)CN(C)C)nc2[nH]ccc12,-log10 GI50,MCF10F,6.31
same,-log10 GI50,HCC1395,5.33
same,-log10 GI50,HCC1187,5.65
same,-log10 GI50,CAMA1,5.08
same,-log10 GI50,SUM185PE,5.48
same,-log10 GI50,HS578T,4.91
same,-log10 GI50,HCC1569,5.12
same,-log10 GI50,BT20,4.86
same,-log10 GI50,MDAMB134VI,4.96
same,-log10 GI50,HCC202,5.05
same,-log10 GI50,HBL100,4.76
COc1cc2c(Nc3ccc(NC(=O)c4ccccc4)cc3)ncnc2cc1OCCCN1CCOCC1,-log10 GI50,MCF10F,< 4
same,-log10 GI50,HCC1395,5.3
same,-log10 GI50,HCC1187,6.39
same,-log10 GI50,CAMA1,5.02
same,-log10 GI50,SUM185PE,4.5
same,-log10 GI50,HS578T,5.88
same,-log10 GI50,HCC1569,5.69
same,-log10 GI50,BT20,5.33
same,-log10 GI50,MDAMB134VI,5.03
COc1cccc(-c2cc(=O)c3ccccc3o2)c1N,-log10 GI50,MCF10F,< 4.3
same,-log10 GI50,HCC1395,< 4
same,-log10 GI50,HCC1187,5.39
same,-log10 GI50,CAMA1,4.32
same,-log10 GI50,SUM185PE,4.88
same,-log10 GI50,HS578T,< 4.3
same,-log10 GI50,HCC1569,< 4.3
same,-log10 GI50,BT20,4.45
same,-log10 GI50,MDAMB134VI,< 4
COc1ncc(-c2ccc3nccc(-c4ccnnc4)c3c2)cc1NS(=O)(=O)c1ccc(F)cc1F,-log10 GI50,MCF10F,8.67
same,-log10 GI50,HCC1395,7.31
same,-log10 GI50,HCC1187,8.3
same,-log10 GI50,CAMA1,7.08
same,-log10 GI50,HS578T,7.13
same,-log10 GI50,HCC1569,7.75
same,-log10 GI50,BT20,7.8
same,-log10 GI50,MDAMB134VI,7.97
same,-log10 GI50,HCC202,9.25
O=C(O)c1ccc(-c2c[nH]c3ncc(-c4ccccc4)cc23)cc1C1CCCC1,-log10 GI50,MCF10F,4.59
same,-log10 GI50,HCC1395,< 4.18
same,-log10 GI50,CAMA1,< 4.18
same,-log10 GI50,SUM185PE,4.79
same,-log10 GI50,HCC1569,< 4.18
same,-log10 GI50,BT20,< 4.48
same,-log10 GI50,MDAMB134VI,< 4.18
O=C1C(Cl)=C(NCCN2CCOCC2)C(=O)c2ncccc21,-log10 GI50,MCF10F,5.6
same,-log10 GI50,HCC1395,6.15
same,-log10 GI50,HCC1187,5.73
same,-log10 GI50,CAMA1,5.59
same,-log10 GI50,SUM185PE,6.5
same,-log10 GI50,HS578T,5.7
same,-log10 GI50,HCC1569,5.36
same,-log10 GI50,BT20,5.49
same,-log10 GI50,MDAMB134VI,5.22
O=C1NC(=O)/C(=C/c2ccc(-c3ccc(F)cc3O)o2)S1,-log10 GI50,MCF10F,< 4.48
same,-log10 GI50,HCC1395,4.22
same,-log10 GI50,HCC1187,5.77
same,-log10 GI50,CAMA1,< 4.18
same,-log10 GI50,HS578T,5.06
same,-log10 GI50,HCC1569,4.54
same,-log10 GI50,BT20,4.93
same,-log10 GI50,MDAMB134VI,4.48
Oc1cc(-c2nc(-c3ccccc3)[nH]c2-c2ccncc2)ccc1Cl,-log10 GI50,MCF10F,4.92
same,-log10 GI50,HCC1395,4.82
same,-log10 GI50,HCC1187,5.07
same,-log10 GI50,CAMA1,4.4
same,-log10 GI50,SUM185PE,5.19
same,-log10 GI50,HS578T,4.69
same,-log10 GI50,HCC1569,4.77
same,-log10 GI50,BT20,4.62
same,-log10 GI50,MDAMB134VI,4.85
O=c1[nH]c2ccccc2n1C1CCN(Cc2ccc(-c3[nH]c4cc5ncnc5cc4nc3-c3ccccc3)cc2)CC1 [Akt inhibitor VIII],-log10 GI50,MCF10F,5.42
same,-log10 GI50,HCC1395,5.25
same,-log10 GI50,HCC1187,5.43
same,-log10 GI50,CAMA1,5.17
same,-log10 GI50,SUM185PE,5.95
same,-log10 GI50,HS578T,4.89
same,-log10 GI50,HCC1569,5.07
same,-log10 GI50,BT20,5.09
same,-log10 GI50,MDAMB134VI,5.05
Cn1c(=O)n(-c2ccc(C(C)(C)C#N)cc2)c2c3cc(-c4cnc5ccccc5c4)ccc3ncc21 [BEZ235],-log10 GI50,MCF10F,< 4.48
same,-log10 GI50,HCC1395,< 4.48
same,-log10 GI50,HCC1187,< 4.48
same,-log10 GI50,CAMA1,6.67
same,-log10 GI50,SUM185PE,< 4.48
same,-log10 GI50,HS578T,< 4.48
same,-log10 GI50,HCC1569,6.33
same,-log10 GI50,BT20,5.6
same,-log10 GI50,MDAMB134VI,< 4.48
CN(C)C/C=C/C(=O)Nc1cc2c(Nc3ccc(F)c(Cl)c3)ncnc2cc1O[C@H]1CCOC1 [BIBW2992],-log10 GI50,MCF10F,7.01
same,-log10 GI50,HCC1395,5.93
same,-log10 GI50,CAMA1,5.65
same,-log10 GI50,SUM185PE,5.46
same,-log10 GI50,HCC1569,6.56
same,-log10 GI50,BT20,5.56
same,-log10 GI50,MDAMB134VI,5.44
CC(C)C[C@H](NC(=O)[C@H](Cc1ccccc1)NC(=O)c1cnccn1)B(O)O [Bortezomib],-log10 GI50,MCF10F,7.59
same,-log10 GI50,HCC1395,8.15
same,-log10 GI50,HCC1187,8.26
same,-log10 GI50,CAMA1,7.9
same,-log10 GI50,SUM185PE,8.27
same,-log10 GI50,HS578T,7.81
same,-log10 GI50,HCC1569,8.12
same,-log10 GI50,BT20,7.33
same,-log10 GI50,MDAMB134VI,8.08
same,-log10 GI50,HCC202,8.14
same,-log10 GI50,HBL100,7.35
COc1cc(Nc2c(C#N)cnc3cc(OCCCN4CCN(C)CC4)c(OC)cc23)c(Cl)cc1Cl [Bosutinib],-log10 GI50,MCF10F,5.75
same,-log10 GI50,HCC1395,5.93
same,-log10 GI50,HCC1187,5.5
same,-log10 GI50,CAMA1,5.11
same,-log10 GI50,HS578T,5.8
same,-log10 GI50,HCC1569,5.76
same,-log10 GI50,BT20,5.89
same,-log10 GI50,MDAMB134VI,< 4
C#Cc1cccc(Nc2ncnc3cc(OCCOC)c(OCCOC)cc23)c1 [Erlotinib],-log10 GI50,MCF10F,6.54
same,-log10 GI50,HCC1395,4.53
same,-log10 GI50,HCC1187,5.12
same,-log10 GI50,CAMA1,< 4.18
same,-log10 GI50,SUM185PE,< 4.18
same,-log10 GI50,HS578T,< 4.18
same,-log10 GI50,HCC1569,4.78
same,-log10 GI50,BT20,5.7
same,-log10 GI50,MDAMB134VI,< 4.18
same,-log10 GI50,HCC202,5.57
same,-log10 GI50,HBL100,< 4.18
COc1cc([C@@H]2c3cc4c(cc3[C@@H](O[C@@H]3O[C@@H]5CO[C@@H](C)O[C@H]5[C@H](O)[C@H]3O)[C@H]3COC(=O)[C@H]23)OCO4)cc(OC)c1O [Etoposide],-log10 GI50,MCF10F,6.13
same,-log10 GI50,HCC1395,5.53
same,-log10 GI50,HCC1187,6.21
same,-log10 GI50,CAMA1,5.31
same,-log10 GI50,SUM185PE,5.31
same,-log10 GI50,HS578T,5.22
same,-log10 GI50,HCC1569,4.2
same,-log10 GI50,BT20,5.48
same,-log10 GI50,MDAMB134VI,5.61
same,-log10 GI50,HCC202,6.03
same,-log10 GI50,HBL100,5.67
CO[C@H]1C[C@@H]2CC[C@@H](C)[C@@](O)(O2)C(=O)C(=O)N2CCCC[C@H]2C(=O)O[C@H]([C@H](C)C[C@@H]2CC[C@@H](OCCO)[C@H](OC)C2)CC(=O)[C@H](C)/C=C(\C)[C@@H](O)[C@@H](OC)C(=O)[C@H](C)C[C@H](C)/C=C/C=C/C=C/1C [Everolimus],-log10 GI50,MCF10F,6
same,-log10 GI50,HCC1395,4.98
same,-log10 GI50,CAMA1,8.15
same,-log10 GI50,SUM185PE,5.8
same,-log10 GI50,HCC1569,5.15
same,-log10 GI50,MDAMB134VI,7.27
CSCC[C@H](NC(=O)[C@H](Cc1ccccc1)NC[C@@H](NC[C@@H](N)CS)C(C)C)C(=O)O [FTase inhibitor I],-log10 GI50,MCF10F,< 4.48
same,-log10 GI50,HCC1395,< 4.18
same,-log10 GI50,HCC1187,< 4.48
same,-log10 GI50,CAMA1,< 4.48
same,-log10 GI50,HS578T,< 4.48
same,-log10 GI50,HCC1569,< 4.18
same,-log10 GI50,BT20,< 4.48
same,-log10 GI50,MDAMB134VI,< 4.48
O=C1c2ccccc2-[n+]2ccc3c([nH]c4ccccc43)c21 [Fascaplysin],-log10 GI50,MCF10F,6.58
same,-log10 GI50,HCC1395,6.49
same,-log10 GI50,HCC1187,7.83
same,-log10 GI50,CAMA1,6.61
same,-log10 GI50,SUM185PE,7.26
same,-log10 GI50,HS578T,5.98
same,-log10 GI50,HCC1569,6.33
same,-log10 GI50,BT20,6.51
same,-log10 GI50,MDAMB134VI,6.65
same,-log10 GI50,HCC202,7.37
same,-log10 GI50,HBL100,6.26
O=c1[nH]c(=O)n([C@H]2C[C@H](O)[C@@H](CO)O2)cc1F [Floxuridine],-log10 GI50,MCF10F,4.34
same,-log10 GI50,HCC1395,3.51
same,-log10 GI50,HCC1187,3.81
same,-log10 GI50,CAMA1,4.36
same,-log10 GI50,HS578T,3.52
same,-log10 GI50,HCC1569,3.38
same,-log10 GI50,BT20,3.49
same,-log10 GI50,MDAMB134VI,3.2

# Source: the supplement of paper PMC3937590
